# Results reported in ChEMBL document CHEMBL1201862, “PubChem BioAssay data set” (2004).
# Active and inactive are the calls of the source.
# Tests used:
# Fatty acid synthase [1] = molecular target: T1, Fatty acid synthase (Homo sapiens, UniProt P49327); experiment: FAS thioesterase domain inhibitors, dose response, biochemical, kinetic fluorescence intensity (AID 624326); type: functional;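 also: rate of fluorescence rise from hydrolysis of a fluorogenic O-methyl fluorescein ester substrate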
# Fatty acid synthase [2] = molecular target: T1, Fatty acid synthase; experiment: FAS thioesterase domain inhibitors, dose response, biochemical, endpoint fluorescence intensity, uHTS hits (AID 624327); type: functional;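 also: fluorescence from hydrolysis of an O-methyl fluorescein acyl ester substrate by the enzyme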
# [3] = Fluorescence-based cell-based high throughput dose response assay for inhibitors of the interaction of nucleotide-binding oligomerization domain containing 2 (NOD2) and the receptor-interacting serine-threonine kinase 2 (RIPK2).; type: functional; details: Homo sapiens
# Beta Lactamase = Beta Lactamase (Pseudomonas aeruginosa, UniProt Q932Y6); experiment: beta-lactamase reporter inhibitor potency, dose response, artefact control for NOD2-RIPK2 interaction inhibitor project, BLA reporter cells, FRET fluorescence (AID 651552); type: functional, cell-based
# [4] = cytotoxicity toward Colo320 cells – cell-based, CellTiter-Glo luminescence, IC50, dose response (AID 1117334); type: functional; details: COLO 320
# [5] = cytotoxicity toward DRD oncogenic fibroblasts, dose response, cell-based, non-viral oncogenic, luminescence (AID 1934); type: functional; details: Homo sapiens
# [6] = NIH-3T3 fibroblast cytotoxicity, dose response, cytotoxicity control, cell-based, fluorescence, Alamar Blue, secondary assay (AID 2327); type: functional;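 also: NIH-3T3 mouse fibroblasts cultured with fluconazole at 8 µg/mL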
# [7] = MC4R antagonists, dose response, counter-screen for LGR2 antagonist project, cell-based, plate reader, cherry pick (AID 743444); type: functional;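 also: transfected HEK 293 cells stimulated with alpha-MSH peptide; potency of inhibitors of the alpha-MSH evoked signal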
# [8] = cytotoxicity toward HT-29 cells – cell-based, CellTiter-Glo luminescence, IC50, dose response (AID 1117330); type: functional
# [9] = A549 cell cytotoxicity, dose response, cytotoxicity control, plate reader, cherry-pick, antagonist series (AID 743412); type: functional, cell-based
# BJ [10] = experiment: cells; type: functional, cell-based; details: Homo sapiens
# [11] = HepG2 cell cytotoxicity, dose response, cytotoxicity control, plate reader, cherry-pick, antagonist series (AID 743416); type: functional, cell-based
# [12] = molecular target: Heat shock protein HSP 90-alpha (Homo sapiens, UniProt P07900); type: functional, organism-based
# [13] = molecular target: Photoreceptor-specific nuclear receptor (Homo sapiens, UniProt Q9Y5X4); type: functional, cell-based;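 also: CHO-S cells with Gal4-NCOR and VP16-NR2E3 two-hybrid luciferase reporter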
# [14] = molecular target: T2, Replicative DNA helicase DnaB (Mycobacterium tuberculosis, UniProt P9WMR3); experiment: DnaB intein splicing inhibitors, dose response, biochemical, cell-free fluorescence (AID 449749); type: functional
# T2 sequence (P9WMR3 whole entry): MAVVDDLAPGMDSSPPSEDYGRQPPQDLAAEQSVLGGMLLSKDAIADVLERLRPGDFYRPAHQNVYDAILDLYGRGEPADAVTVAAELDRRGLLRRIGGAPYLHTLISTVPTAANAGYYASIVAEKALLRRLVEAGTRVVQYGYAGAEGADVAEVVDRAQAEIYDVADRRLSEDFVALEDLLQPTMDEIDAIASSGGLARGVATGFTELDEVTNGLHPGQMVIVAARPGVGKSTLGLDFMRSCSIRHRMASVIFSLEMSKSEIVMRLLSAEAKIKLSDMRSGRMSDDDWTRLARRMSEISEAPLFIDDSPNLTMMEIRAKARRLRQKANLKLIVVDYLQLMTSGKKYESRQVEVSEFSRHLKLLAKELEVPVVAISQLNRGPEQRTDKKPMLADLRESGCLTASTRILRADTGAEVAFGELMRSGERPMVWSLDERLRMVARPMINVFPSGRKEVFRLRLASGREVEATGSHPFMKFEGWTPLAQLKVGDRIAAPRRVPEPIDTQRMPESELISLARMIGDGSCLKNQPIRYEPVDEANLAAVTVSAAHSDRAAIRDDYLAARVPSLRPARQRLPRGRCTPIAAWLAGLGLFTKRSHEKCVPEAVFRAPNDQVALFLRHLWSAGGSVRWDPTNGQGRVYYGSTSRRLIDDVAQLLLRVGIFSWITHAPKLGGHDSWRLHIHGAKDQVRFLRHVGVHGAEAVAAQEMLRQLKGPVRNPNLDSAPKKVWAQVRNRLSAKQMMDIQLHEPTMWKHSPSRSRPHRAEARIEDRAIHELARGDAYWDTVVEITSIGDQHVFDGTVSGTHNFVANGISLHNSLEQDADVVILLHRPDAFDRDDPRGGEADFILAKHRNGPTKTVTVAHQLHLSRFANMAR
# [15] = LGR2 antagonists, dose response, cell-based, HEK293, CRE-luciferase reporter, cherry pick, set 2 (AID 743343); type: functional;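 also: transfected cells were stimulated with diluted bursicon conditioned medium after compound addition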
# [16] = SNU-C1 cell viability reduction, dose response, CellTiter-Glo luminescence (AID 1117323); type: functional, cell-based
# [17] = HeLa 2N DNA content increase, dose response, cell-based, IC50 (AID 1117349); type: functional
# [18] = Concentration-dependent survival of SW480 colon cancer line, luminescence detection with CellTiter-Glo, half-maximal inhibitory concentration (AID 1117338); type: functional
# [19] = HeLa 4N DNA content increase, dose response, cell-based, IC50 (AID 1117351); type: functional
# [20] = C. albicans growth with fluconazole, confirmation, fluorescence, retest (AID 2467); type: functional, cell-based
# [21] = CellTiter-Glo luminescent dose response of DLD-1 viability loss (AID 1117352); type: functional
# [22] = RKO cell viability reduction, dose response, CellTiter-Glo luminescence (AID 1117322); type: functional
# Nonstructural protein 1 = Nonstructural protein 1 (Influenza A virus, UniProt Q194T2); type: functional, Influenza A virus (A/California/07/2009(H1N1))
# [23] = HEK293 cell cytotoxicity, dose response, cytotoxicity control, plate reader, cherry-picked samples (AID 743446); type: functional, cell-based
# [24] = cytotoxicity toward HCT116 cells – cell-based, CellTiter-Glo luminescence, IC50, dose response (AID 1117332); type: functional; details: HCT-116
# [25] = THP-1 cell cytotoxicity, dose response, cytotoxicity control for Vif-APOBEC3G degradation inhibitor project, THP-1 cells (AID 1117359); type: functional; details: Human immunodeficiency virus 1, THP-1
# [26] = HCT116 cell viability decrease, GSK3B pretreatment – CellTiter-Glo, IC50, dose response (AID 1117339); type: functional; details: HCT-116
# BJ [27] = experiment: cytotoxicity toward BJ-TERT fibroblasts, dose response, cell-based, RAS-independent, luminescence (AID 1933); type: functional; details: Homo sapiens
# BJ [28] = experiment: cytotoxicity toward BJ-TERT-LT-ST fibroblasts, dose response, cell-based, RAS-independent, luminescence (AID 1935); type: functional; details: Homo sapiens;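 also: BJ fibroblasts immortalized with TERT plus LT and ST oncogenes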
# Caspase-6 = molecular target: T3, Caspase-6 (Homo sapiens, UniProt P55212); experiment: human caspase-6 inhibitors, dose response, biochemical, VEID-R110 fluorescence, cherry-pick (AID 720632)
# T3 sequence (P55212 whole entry): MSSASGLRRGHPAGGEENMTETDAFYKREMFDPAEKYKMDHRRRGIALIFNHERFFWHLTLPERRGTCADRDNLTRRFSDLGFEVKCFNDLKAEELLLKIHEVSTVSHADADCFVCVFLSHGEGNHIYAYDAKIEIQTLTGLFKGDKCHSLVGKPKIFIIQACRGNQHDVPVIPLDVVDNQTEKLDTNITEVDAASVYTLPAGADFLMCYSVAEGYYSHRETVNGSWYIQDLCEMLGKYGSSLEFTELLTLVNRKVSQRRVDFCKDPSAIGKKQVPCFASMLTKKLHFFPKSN
# Protein RecA = molecular target: T4, Protein RecA (Mycobacterium tuberculosis, UniProt P9WHJ3); experiment: Fluorescence Cell-Free Homogeneous Dose Retest to Identify Inhibitors of RecA-Intein Splicing Activity. [Related pubchem assays (depositor defined):AID2097, AID2223, AID489010, AID492950]; type: functional
# T4 sequence (P9WHJ3 whole entry): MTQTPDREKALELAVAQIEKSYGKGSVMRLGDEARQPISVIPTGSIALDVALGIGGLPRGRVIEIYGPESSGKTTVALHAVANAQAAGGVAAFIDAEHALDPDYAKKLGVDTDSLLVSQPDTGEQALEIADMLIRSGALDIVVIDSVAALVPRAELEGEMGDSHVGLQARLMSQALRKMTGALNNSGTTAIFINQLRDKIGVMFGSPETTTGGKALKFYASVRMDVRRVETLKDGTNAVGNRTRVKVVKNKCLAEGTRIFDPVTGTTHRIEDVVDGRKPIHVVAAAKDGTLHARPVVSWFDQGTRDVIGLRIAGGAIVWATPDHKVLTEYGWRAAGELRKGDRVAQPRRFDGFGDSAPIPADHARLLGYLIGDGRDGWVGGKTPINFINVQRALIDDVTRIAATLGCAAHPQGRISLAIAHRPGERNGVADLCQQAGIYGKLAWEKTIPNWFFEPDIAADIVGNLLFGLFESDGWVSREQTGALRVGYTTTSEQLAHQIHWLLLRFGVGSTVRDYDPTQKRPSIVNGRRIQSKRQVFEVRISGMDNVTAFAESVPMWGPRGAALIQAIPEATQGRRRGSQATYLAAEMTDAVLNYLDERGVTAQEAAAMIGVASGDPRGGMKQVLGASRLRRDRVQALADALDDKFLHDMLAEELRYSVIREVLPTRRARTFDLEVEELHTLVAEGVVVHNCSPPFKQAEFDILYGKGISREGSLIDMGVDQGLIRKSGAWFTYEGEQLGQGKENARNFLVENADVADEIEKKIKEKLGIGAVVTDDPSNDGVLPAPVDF
# T1 sequence (P49327 whole entry, the tested form may be a part): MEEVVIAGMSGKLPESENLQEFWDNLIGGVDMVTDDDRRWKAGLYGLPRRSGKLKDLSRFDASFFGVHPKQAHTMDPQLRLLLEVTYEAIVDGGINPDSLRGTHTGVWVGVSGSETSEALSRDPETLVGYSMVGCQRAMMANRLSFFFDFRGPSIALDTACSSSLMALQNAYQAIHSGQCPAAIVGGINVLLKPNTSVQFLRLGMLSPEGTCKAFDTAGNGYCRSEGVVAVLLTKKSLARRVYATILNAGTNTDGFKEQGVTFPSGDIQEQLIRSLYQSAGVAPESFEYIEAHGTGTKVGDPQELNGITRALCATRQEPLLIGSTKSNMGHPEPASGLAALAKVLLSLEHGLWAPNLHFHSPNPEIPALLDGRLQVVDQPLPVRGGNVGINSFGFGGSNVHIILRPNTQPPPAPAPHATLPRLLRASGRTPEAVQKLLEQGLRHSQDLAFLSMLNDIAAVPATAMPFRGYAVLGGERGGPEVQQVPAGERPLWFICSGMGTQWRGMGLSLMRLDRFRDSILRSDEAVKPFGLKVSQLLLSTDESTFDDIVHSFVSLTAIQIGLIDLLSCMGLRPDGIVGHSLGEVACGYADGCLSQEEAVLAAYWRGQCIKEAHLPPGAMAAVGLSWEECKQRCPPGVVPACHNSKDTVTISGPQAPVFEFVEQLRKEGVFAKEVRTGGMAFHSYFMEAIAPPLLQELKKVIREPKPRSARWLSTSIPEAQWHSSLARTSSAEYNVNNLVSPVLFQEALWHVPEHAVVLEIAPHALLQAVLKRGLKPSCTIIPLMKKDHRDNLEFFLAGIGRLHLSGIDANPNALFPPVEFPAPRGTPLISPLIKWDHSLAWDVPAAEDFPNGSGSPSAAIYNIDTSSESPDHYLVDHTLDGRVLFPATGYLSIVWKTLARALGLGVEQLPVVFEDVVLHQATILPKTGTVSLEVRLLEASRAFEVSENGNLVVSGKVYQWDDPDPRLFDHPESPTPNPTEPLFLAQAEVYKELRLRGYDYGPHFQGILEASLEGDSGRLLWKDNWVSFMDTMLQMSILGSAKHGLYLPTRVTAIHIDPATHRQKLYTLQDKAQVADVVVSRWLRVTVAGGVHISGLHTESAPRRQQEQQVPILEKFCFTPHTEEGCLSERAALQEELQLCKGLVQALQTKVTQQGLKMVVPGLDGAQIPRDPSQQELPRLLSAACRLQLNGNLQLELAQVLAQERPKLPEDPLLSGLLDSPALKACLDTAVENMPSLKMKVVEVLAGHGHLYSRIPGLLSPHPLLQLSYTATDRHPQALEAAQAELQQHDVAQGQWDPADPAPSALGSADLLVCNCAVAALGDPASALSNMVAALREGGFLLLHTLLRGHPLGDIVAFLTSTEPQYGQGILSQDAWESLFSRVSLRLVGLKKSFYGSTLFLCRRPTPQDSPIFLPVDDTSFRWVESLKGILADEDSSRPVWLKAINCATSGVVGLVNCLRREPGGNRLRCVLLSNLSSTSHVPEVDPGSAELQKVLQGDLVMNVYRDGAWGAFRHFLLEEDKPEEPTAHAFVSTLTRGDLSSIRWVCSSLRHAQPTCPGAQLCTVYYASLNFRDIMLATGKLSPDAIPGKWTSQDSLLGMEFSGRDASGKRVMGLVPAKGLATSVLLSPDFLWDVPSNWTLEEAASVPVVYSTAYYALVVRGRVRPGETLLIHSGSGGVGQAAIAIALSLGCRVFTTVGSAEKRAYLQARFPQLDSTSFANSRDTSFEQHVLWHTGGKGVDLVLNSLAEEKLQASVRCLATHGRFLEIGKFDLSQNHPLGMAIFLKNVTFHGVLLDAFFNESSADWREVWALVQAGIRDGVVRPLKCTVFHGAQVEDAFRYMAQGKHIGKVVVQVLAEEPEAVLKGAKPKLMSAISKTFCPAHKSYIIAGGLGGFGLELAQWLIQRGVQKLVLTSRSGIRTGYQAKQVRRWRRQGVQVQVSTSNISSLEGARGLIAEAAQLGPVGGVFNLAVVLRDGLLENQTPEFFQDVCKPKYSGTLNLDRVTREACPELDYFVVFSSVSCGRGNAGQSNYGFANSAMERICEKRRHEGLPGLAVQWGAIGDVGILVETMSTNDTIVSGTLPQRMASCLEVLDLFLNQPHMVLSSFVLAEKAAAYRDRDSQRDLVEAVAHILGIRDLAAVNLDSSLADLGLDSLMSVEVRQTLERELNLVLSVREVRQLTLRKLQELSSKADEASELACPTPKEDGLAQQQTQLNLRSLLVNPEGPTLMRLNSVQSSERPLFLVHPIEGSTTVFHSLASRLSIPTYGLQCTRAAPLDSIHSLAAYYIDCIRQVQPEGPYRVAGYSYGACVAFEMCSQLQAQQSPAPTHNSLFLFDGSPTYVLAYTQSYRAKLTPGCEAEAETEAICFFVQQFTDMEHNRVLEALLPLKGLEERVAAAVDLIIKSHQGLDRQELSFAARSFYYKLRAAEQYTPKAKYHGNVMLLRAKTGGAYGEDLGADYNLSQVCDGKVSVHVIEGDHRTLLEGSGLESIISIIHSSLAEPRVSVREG
# Chain of Beta Lactamase (Q932Y6 whole entry): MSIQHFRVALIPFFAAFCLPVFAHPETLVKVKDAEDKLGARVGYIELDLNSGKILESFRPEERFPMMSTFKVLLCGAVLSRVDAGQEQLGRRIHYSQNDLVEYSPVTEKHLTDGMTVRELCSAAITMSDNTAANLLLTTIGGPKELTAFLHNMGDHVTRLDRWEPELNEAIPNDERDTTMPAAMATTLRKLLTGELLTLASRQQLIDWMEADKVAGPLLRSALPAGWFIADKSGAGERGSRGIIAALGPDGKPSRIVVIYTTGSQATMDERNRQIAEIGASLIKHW
# Chain of Nonstructural protein 1 (Q194T2 whole entry): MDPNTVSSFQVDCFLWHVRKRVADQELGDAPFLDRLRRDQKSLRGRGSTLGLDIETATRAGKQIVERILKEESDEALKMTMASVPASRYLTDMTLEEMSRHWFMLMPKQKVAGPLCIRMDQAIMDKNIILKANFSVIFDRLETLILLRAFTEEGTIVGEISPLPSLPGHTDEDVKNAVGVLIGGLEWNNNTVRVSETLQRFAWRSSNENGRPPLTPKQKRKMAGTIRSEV
# Chain of Photoreceptor-specific nuclear receptor (Q9Y5X4 whole entry, the tested form may be a part): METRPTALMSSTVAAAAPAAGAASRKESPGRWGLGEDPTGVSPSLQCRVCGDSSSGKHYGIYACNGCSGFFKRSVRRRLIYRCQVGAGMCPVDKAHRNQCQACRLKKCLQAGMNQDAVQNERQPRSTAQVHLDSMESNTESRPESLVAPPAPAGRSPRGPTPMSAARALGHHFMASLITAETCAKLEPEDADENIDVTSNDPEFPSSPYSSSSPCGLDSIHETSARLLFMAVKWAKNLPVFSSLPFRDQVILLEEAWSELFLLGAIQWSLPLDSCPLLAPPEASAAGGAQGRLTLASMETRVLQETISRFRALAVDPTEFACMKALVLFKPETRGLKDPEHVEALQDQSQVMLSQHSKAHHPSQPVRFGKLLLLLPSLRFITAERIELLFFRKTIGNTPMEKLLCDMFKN
smiles,measurement,setting,value
CCOC(=O)[C@]12Cc3c(cc(OC)c(OC)c3OC)[C@H]1N(C1CCCCC1)C(=O)c1ccccc12,IC50,Fatty acid synthase [1],7.77 µM (active)
same,IC50,Fatty acid synthase [2],8.89 µM (active)
same,IC50,[3],2.03 µM (active)
same,IC50,Beta Lactamase,25.5 µM (inactive)
O=[N+]([O-])c1ccc(O)c2ncccc12 [NITROXOLINE],IC50,[4],684 nM (active)
same,EC50,[5],16.6 µM (active)
same,EC50,[6],9.52 µM (inconclusive)
same,AC50,[7],48.7 µM (active)
same,IC50,[8],> 20 µM (inactive)
same,AC50,[9],12.1 µM (active)
same,EC50,BJ [10],28.8 µM (active)
same,AC50,[11],9.7 µM (active)
same,AC50,[12],996 nM (active)
same,IC50,[13],8.96 µM (active)
same,AC50,[14],9.95 µM (active)
same,AC50,[15],54.9 µM (active)
same,IC50,[16],> 20 µM (inactive)
same,IC50,[17],1.7 µM (active)
same,IC50,[18],605 nM (active)
same,IC50,[19],> 10 µM (inactive)
same,EC50,[20],161 nM (active)
same,IC50,[21],1.38 µM (active)
same,IC50,[22],710 nM (active)
same,IC50,Nonstructural protein 1,4.72 µM (active)
same,AC50,[23],11.5 µM (active)
same,IC50,[24],921 nM (active)
same,CC50,[25],5.53 µM (active)
same,IC50,[26],375 nM (active)
same,EC50,BJ [27],9.44 µM (active)
same,EC50,BJ [28],16.7 µM (inconclusive)
same,AC50,Caspase-6,14.9 µM (active)
same,EC50,Protein RecA,14.4 µM (active)
